The values below come from ChEMBL document CHEMBL3991601, “The target landscape of clinical kinase drugs” (Science, 2017).

Calls of active or inactive are those of the source. Rule as the data show it, for most assays here: actives have a measured Kd and inactives only a lower limit. Bounds are passed on as bounds.

In assay [1] the target is T1, Probable ATP-dependent RNA helicase DDX6 (Homo sapiens, UniProt P26196).
T1 sequence (P26196 whole entry): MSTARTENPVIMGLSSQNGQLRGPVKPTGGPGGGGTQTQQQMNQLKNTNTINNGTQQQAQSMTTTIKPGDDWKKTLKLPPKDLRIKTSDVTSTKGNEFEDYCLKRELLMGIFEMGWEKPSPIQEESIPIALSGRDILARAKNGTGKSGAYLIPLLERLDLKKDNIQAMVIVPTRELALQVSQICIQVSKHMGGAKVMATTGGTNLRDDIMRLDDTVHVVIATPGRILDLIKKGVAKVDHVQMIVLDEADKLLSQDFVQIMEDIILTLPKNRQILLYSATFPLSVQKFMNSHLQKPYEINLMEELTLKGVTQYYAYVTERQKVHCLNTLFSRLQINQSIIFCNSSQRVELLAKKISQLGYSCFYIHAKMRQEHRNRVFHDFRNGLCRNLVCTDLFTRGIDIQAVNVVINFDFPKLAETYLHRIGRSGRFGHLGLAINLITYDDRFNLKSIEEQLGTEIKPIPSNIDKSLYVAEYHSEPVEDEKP

The target of assay [2] is Bone morphogenetic protein receptor type-1B (Homo sapiens, UniProt O00238).
Sequence of Bone morphogenetic protein receptor type-1B (O00238 whole entry): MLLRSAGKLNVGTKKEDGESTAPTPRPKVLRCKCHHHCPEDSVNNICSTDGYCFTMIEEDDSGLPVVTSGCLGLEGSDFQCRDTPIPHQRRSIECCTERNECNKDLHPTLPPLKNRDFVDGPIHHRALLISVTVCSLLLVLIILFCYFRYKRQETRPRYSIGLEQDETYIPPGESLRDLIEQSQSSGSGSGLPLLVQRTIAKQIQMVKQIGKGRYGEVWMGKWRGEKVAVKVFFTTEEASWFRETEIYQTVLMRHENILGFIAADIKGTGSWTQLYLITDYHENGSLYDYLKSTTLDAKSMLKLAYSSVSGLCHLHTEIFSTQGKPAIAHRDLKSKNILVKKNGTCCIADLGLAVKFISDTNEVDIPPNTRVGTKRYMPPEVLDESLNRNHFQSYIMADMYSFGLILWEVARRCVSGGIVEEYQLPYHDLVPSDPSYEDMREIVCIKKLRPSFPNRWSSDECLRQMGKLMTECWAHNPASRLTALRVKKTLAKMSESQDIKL
Assay [3] addresses Tyrosine-protein kinase Yes (Homo sapiens, UniProt P07947).
The target in assay [4] is ATP-dependent RNA helicase DDX3X (Homo sapiens, UniProt O00571).
Sequence of ATP-dependent RNA helicase DDX3X (O00571 whole entry): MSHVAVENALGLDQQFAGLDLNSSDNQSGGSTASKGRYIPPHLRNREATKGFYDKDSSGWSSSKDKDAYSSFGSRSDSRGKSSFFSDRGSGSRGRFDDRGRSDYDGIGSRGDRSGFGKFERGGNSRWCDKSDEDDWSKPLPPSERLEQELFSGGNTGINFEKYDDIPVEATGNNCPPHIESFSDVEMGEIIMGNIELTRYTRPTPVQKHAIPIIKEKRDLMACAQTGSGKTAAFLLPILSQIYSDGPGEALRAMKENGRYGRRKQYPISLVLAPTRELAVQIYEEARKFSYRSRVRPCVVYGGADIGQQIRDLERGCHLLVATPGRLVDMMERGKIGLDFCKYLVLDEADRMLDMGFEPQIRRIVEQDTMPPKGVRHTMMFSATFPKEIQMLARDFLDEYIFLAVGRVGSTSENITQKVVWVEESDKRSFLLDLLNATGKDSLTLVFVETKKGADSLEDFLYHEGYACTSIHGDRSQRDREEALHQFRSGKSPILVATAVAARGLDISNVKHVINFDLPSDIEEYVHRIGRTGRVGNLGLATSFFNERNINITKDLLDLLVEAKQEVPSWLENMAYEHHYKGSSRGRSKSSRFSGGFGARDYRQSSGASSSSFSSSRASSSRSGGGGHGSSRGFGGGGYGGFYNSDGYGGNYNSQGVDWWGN
In assay [5] the target is T2, Mitogen-activated protein kinase 15 (Homo sapiens, UniProt Q8TD08).
T2 sequence (Q8TD08 whole entry): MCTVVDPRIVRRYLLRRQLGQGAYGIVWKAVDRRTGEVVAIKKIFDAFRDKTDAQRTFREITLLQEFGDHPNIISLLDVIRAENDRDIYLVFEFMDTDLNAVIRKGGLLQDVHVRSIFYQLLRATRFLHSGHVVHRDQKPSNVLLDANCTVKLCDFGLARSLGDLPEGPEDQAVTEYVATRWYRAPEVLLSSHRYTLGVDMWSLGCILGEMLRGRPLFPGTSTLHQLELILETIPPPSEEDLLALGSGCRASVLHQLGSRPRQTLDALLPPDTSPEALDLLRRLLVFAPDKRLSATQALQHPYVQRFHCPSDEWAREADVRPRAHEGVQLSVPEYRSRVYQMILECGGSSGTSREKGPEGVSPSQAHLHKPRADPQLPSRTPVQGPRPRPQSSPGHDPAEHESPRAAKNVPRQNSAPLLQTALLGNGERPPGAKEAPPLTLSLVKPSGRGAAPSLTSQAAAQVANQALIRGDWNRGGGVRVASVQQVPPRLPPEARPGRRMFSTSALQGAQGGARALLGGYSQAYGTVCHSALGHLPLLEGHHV

Assay [6] deals with Eukaryotic translation initiation factor 2-alpha kinase 1 (Homo sapiens, UniProt Q9BQI3).
Sequence of Eukaryotic translation initiation factor 2-alpha kinase 1 (Q9BQI3 whole entry): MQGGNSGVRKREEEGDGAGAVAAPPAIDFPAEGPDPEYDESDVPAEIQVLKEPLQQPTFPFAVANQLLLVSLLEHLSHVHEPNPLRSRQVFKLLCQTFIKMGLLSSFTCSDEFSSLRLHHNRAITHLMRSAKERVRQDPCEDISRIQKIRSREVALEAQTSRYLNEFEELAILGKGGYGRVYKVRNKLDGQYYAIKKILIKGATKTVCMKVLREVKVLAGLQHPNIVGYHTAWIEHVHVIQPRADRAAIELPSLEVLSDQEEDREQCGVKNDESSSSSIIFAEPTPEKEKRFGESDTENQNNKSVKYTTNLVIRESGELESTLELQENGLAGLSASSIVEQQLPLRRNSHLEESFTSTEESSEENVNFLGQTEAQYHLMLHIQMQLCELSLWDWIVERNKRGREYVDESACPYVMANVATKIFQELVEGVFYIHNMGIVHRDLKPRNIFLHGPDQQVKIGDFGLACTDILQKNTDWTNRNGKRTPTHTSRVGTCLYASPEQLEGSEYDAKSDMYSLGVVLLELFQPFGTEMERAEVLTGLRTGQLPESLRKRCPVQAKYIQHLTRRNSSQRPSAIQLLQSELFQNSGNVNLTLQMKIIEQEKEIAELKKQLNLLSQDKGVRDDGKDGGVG
The target of a further assay is T3, Activin receptor type-1 (Homo sapiens, UniProt Q04771).
T3 sequence (Q04771 whole entry): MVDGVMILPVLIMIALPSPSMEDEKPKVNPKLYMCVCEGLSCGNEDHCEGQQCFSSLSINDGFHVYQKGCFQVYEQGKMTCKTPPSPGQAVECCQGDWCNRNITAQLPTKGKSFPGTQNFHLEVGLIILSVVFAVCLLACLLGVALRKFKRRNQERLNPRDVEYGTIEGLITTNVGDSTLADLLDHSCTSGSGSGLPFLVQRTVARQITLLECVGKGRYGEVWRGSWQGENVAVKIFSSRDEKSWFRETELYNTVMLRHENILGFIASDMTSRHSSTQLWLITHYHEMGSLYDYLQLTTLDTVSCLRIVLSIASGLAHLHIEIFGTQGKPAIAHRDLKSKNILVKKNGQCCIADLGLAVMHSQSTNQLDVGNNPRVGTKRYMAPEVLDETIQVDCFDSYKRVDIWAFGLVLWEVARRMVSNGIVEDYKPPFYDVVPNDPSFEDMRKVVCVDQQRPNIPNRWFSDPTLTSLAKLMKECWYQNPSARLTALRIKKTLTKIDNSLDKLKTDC

For assay [7], the target named is cAMP-dependent protein kinase type II-alpha regulatory subunit (Homo sapiens, UniProt P13861).
Sequence of cAMP-dependent protein kinase type II-alpha regulatory subunit (P13861 whole entry): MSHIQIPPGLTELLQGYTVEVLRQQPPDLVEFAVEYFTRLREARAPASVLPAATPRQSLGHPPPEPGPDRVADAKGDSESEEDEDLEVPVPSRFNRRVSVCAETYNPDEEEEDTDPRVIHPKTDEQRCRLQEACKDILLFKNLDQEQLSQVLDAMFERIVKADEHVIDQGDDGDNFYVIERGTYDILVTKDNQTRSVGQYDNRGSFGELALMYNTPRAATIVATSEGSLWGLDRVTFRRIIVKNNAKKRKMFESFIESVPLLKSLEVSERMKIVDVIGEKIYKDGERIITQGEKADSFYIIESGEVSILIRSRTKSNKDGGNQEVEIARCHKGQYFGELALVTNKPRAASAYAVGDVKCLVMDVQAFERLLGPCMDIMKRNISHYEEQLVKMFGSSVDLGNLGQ
The target of assay [8] is Protein kinase C delta type (Homo sapiens, UniProt Q05655).
Sequence of Protein kinase C delta type (Q05655 whole entry): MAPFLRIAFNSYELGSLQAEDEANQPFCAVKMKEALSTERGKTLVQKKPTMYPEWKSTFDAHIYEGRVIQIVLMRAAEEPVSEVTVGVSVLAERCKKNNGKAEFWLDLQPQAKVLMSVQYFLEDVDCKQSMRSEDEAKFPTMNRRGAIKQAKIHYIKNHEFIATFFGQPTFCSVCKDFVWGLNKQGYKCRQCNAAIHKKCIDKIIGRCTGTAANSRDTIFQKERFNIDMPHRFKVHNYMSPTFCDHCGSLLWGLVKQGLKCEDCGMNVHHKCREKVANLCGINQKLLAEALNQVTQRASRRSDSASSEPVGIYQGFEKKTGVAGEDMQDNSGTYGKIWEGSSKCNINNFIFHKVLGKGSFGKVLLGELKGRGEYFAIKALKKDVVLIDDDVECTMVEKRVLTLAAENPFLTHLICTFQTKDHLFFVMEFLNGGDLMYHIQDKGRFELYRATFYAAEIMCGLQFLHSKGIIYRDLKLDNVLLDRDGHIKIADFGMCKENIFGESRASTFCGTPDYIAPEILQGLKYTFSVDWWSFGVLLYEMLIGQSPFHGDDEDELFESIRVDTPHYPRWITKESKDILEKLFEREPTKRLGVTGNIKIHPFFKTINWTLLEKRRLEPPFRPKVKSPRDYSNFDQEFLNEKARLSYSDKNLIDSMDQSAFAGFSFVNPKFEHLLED
For assay [9], the target named is Ribosomal protein S6 kinase alpha-1 (Homo sapiens, UniProt Q15418).
Sequence of Ribosomal protein S6 kinase alpha-1 (Q15418 whole entry): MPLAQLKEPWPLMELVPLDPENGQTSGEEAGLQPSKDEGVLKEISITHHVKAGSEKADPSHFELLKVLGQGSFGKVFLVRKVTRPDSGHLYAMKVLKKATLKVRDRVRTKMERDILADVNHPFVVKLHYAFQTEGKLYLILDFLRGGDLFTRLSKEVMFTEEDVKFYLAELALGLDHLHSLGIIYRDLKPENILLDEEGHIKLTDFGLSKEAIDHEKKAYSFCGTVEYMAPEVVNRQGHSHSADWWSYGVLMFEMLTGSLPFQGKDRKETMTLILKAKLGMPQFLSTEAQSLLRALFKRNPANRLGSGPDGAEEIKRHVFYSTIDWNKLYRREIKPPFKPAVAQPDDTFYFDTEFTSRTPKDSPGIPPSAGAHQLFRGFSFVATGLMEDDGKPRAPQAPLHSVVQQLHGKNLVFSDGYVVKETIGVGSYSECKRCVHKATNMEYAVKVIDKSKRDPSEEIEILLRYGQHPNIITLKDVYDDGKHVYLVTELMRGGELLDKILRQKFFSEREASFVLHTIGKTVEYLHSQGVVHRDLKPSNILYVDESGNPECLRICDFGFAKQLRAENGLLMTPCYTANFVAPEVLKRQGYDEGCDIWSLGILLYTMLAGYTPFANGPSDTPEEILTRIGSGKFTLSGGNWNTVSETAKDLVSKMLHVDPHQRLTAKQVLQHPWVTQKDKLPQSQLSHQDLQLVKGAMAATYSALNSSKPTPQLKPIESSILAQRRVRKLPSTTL
Also: in the data inactive means no Kd found up to 30 µM.

Sequence of Tyrosine-protein kinase Yes (P07947 whole entry): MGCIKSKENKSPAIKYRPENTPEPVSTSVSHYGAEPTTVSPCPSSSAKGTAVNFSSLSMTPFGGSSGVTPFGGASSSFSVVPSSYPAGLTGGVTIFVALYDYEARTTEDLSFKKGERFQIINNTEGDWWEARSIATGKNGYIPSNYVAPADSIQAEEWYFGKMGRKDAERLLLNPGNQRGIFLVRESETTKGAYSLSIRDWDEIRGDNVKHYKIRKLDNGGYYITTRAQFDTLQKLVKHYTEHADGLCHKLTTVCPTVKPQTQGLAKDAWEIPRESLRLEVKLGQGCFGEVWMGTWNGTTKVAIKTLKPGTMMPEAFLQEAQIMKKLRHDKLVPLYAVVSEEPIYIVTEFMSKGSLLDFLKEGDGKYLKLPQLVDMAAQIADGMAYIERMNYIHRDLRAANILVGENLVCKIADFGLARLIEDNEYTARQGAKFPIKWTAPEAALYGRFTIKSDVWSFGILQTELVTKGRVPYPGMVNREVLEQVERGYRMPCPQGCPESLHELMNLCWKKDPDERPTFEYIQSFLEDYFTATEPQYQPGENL

Regarding `COc1cc2nccc(Oc3ccc(NC(=O)NC4CC4)c(Cl)c3)c2cc1C(N)=O` [LENVATINIB], the Kd in assay [1], in assay [2], in [3], in [4], in assay [5] and in assay [6] was > 30 µM (inactive) each time. Moreover, the Kd (at Activin receptor type-1; in assay [7]; in assay [8]) was > 30 µM (inactive) each time.

Turning to `CO[C@H]1C[C@@H]2CC[C@@H](C)[C@@](O)(O2)C(=O)C(=O)N2CCCC[C@H]2C(=O)O[C@H]([C@H](C)C[C@@H]2CC[C@@H](OCCO)[C@H](OC)C2)CC(=O)[C@H](C)/C=C(\C)[C@@H](O)[C@@H](OC)C(=O)[C@H](C)C[C@H](C)/C=C/C=C/C=C/1C` [EVEROLIMUS], the Kd in [1], in [2], in assay [9], in assay [3], in [4] and in assay [5] was > 30 µM (inactive) in each case. Besides, the Kd (in [6]; at Activin receptor type-1; in assay [7]; in [8]) was > 30 µM (inactive) in each case.

As to `Cc1ccc(NC(=O)c2ccc(CN3CC[C@H](N(C)C)C3)c(C(F)(F)F)c2)cc1Nc1nccc(-c2cncnc2)n1` [BAFETINIB], the Kd in assay [1], in [2], in assay [9], in [3], in [4] and in [5] was > 30 µM (inactive) throughout. Moreover, the Kd (in assay [6]; at Activin receptor type-1; in assay [7]; in assay [8]) was > 30 µM (inactive) in each case.

`CC(C)Nc1cc(-c2c[nH]c(C(=O)N[C@H](CO)c3cccc(Cl)c3)c2)c(Cl)cn1` [ULIXERTINIB]: the Kd in assay [1], in [2], in [9], in [3], in [4] and in assay [5] was > 30 µM (inactive) throughout. Besides, the Kd (in assay [6]; on Activin receptor type-1; in assay [7]; in [8]) was > 30 µM (inactive) each time.

As to `COc1cc2nccc(Oc3ccc(NC(=O)Nc4cc(C)on4)c(Cl)c3)c2cc1OC` [TIVOZANIB], the Kd in [1], in assay [2], in [9], in assay [3], in assay [4] and in [6] was > 30 µM (inactive) throughout. The Kd (at Activin receptor type-1; in assay [7]; in assay [8]) was > 30 µM (inactive) throughout.

For the molecule `Cn1ncc(Cl)c1-c1cc(C(=O)N[C@H](CN)Cc2cccc(F)c2)sc1Cl` [AFURESERTIB], the Kd in assay [2], in assay [9], in assay [3], in [4], in [5] and in assay [6] was > 30 µM (inactive) each time. Moreover, the Kd (on Activin receptor type-1; in assay [7]; in assay [8]) was > 30 µM (inactive) in each case.

In the case of `CCN1CCN(Cc2ccc(-c3cc4c(N[C@H](C)c5ccccc5)ncnc4[nH]3)cc2)CC1` [AEE-788], the Kd in assay [1], in assay [2], in [9], in assay [4], in assay [5] and in assay [6] was > 30 µM (inactive) throughout. For the same molecule, the Kd (commonly the constant that tells how readily two partners part at equilibrium) at Activin receptor type-1 was 16.1 µM (active); in assay [7] it was > 30 µM (inactive); in assay [8], > 30 µM (inactive).
